Experimental findings from US20240425491A1, “HETEROARYL COMPOUNDS USEFUL IN THE TREATMENT OF COGNITIVE DISORDERS” (University College Cardiff Consultants Limited, priority 2021, published 2024) are described below.

Counter-ions that a name gives are not always drawn.

The target in experiment [1] is T1, human recombinant GABAAR containing α5β3γ2 subunits (benzodiazepine site) (Homo sapiens, UniProt P18507+P31644).
T1 construct: expressed in transfected cells; host or cells: mouse L(tk−) cells, dexamethasone-inducible vector pMSGneo
Nature of the experiment: In vitro radioligand binding assay (α5-GABAAR Ki). The note with it: inhibition of [3H]Ro15-1788 binding, membranes of L(tk−) cells expressing human α5β3γ2; read-out: α5-GABAAR Ki. Summed up:
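Displacement of 4 nM [^3H]flumazenil from the benzodiazepine site, read by filtration and scintillation, gave IC50, converted to Ki (Cheng-Prusoff, saturation-derived Kd). Receptor: human α5β3γ2 membranes from L(tk^−) cells, 50 μg protein/well; 1 h, 4° C; TP003 1 μM defined nonspecific binding.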

Experiment [2] deals with T2, human α5β3γ2 GABAARs in mouse L(tk−) cells (Homo sapiens, UniProt P18507+P31644).
T2 construct: expressed in transfected cells; host or cells: mouse L(tk−) cells, dexamethasone-inducible vector pMSGneo
The experiment in a line: In vitro electrophysiological recording assay (α5-GABAAR relative efficacy), QPatch. Format: cell-based. The note with it: GABA EC10-20. In a few lines: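 Whole-cell QPatch recordings at 20-22° C, −65 mV holding, in dexamethasone-induced (1 μM, 24 h) L(tk−) cells. Compound pre-applied ≥1 min, then co-applied with GABA EC10-20; percentage change in leak-corrected peak current, taken at ≥100× Ki, normalised to DMCM efficacy; 0.1% DMSO final.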
A general note: In patch-clamp work, channel activity is measured electrically.

T1 sequence (P31644 32-462): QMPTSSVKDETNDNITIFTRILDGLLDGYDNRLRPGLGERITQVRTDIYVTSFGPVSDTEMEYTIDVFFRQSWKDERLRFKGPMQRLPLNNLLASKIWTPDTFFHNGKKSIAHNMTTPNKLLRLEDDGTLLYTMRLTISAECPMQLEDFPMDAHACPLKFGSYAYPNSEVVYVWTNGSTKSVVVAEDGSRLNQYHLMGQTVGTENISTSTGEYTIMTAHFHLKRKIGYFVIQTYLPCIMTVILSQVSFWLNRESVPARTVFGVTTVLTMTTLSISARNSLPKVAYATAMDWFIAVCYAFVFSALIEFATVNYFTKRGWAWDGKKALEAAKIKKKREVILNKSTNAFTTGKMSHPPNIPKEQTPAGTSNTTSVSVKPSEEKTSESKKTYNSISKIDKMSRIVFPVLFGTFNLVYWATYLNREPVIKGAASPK
T1 sequence (P28472 26-473 partner): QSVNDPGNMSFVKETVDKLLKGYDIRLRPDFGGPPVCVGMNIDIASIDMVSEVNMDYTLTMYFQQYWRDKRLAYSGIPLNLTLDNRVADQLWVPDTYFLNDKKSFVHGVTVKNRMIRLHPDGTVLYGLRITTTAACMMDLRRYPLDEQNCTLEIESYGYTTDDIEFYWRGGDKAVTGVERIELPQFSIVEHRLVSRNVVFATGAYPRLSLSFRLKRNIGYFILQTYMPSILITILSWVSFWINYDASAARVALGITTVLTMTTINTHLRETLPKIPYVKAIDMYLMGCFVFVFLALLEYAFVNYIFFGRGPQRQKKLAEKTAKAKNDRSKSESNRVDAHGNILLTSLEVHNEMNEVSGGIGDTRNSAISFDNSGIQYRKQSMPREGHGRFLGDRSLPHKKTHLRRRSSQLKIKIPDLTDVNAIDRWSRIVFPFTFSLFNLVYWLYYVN
T1 sequence (P18507 40-475): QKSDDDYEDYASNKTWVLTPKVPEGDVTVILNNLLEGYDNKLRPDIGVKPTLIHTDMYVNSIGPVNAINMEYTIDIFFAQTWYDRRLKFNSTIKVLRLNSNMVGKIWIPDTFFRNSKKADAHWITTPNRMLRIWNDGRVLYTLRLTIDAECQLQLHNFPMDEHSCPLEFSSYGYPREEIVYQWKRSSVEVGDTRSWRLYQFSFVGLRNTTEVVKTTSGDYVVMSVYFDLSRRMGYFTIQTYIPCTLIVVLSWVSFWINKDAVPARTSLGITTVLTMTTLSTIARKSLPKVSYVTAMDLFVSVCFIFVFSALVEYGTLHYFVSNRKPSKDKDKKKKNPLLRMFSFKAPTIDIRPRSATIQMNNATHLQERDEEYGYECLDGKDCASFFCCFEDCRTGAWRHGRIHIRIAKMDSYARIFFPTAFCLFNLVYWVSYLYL
T2 sequence (P31644 32-462): as the sequence (P31644 32-462) above
T2 sequence (P28472 26-473 partner): as the sequence (P28472 26-473 partner) above
T2 sequence (P18507 40-475): as the sequence (P18507 40-475) above

In general, Ki refers to a dissociation constant, usually derived from enzyme kinetics or from competition with a known ligand. In the case of `COc1nc(-c2cncc(C(=O)N(C)C)c2)ccc1NC(=O)c1c(-c2ccccc2)noc1C` [Example 95, N-(5′-(Dimethylcarbamoyl)-6-methoxy-[2,3′-bipyridin]-5-yl)-5-methyl-3-phenyl-isoxazole-4-carboxamide], the Ki in experiment [1] was 1.4 nM. In addition, the “α5-GABAAR Relative Efficacy (to DMCM), Qpatch” value (“α5-GABAAR Relative Efficacy” for short) in experiment [2] (Conc 0.3 μM) is −0.66.
As for `COc1nc(-c2ccnnc2)ccc1NC(=O)c1c(-c2ccccc2)noc1C` [Example 104, N-(2-Methoxy-6-(pyridazin-4-yl)pyridin-3-yl)-5-methyl-3-phenylisoxazole-4-carboxamide], in experiment [1], the Ki worked out at 1.7 nM. In addition, in experiment [2] (Conc 0.3 μM), the “α5-GABAAR Relative Efficacy” value is listed as −0.68.
The matching figures for `COc1nc(-c2cnc(N(C)C)nc2)ccc1NC(=O)c1c(-c2ccccc2)noc1C` [Example 45, N-(6-(2-(Dimethylamino)pyrimidin-5-yl)-2-methoxypyridin-3-yl)-5-methyl-3-phenylisoxazole-4-carboxamide]: 1.2 nM and −0.65.
On to `COc1cc(-c2c(C)noc2C)cnc1NC(=O)c1c(-c2ccccc2)noc1C` [Example 14, N-[5-(3,5-Dimethylisoxazol-4-yl)-3-methoxy-2-pyridyl]-5-methyl-3-phenyl-isoxazole-4-carboxamide], for which the Ki in experiment [1] turned out to be 50 nM. Besides, the “α5-GABAAR Relative Efficacy” value in experiment [2] (Conc 10 μM) is −0.24.
Turning to `COc1nc(-c2ccn3nc(N)nc3c2)ccc1NC(=O)c1c(-c2ccccc2)noc1C.Cl` [Example 61, N-[6-(2-Amino-[1,2,4]triazolo[1,5-a]pyridin-7-yl)-2-methoxy-3-pyridyl]-5-methyl-3-phenyl-isoxazole-4-carboxamide hydrochloride], the Ki in experiment [1] is 1.4 nM. The “α5-GABAAR Relative Efficacy” value in experiment [2] (Conc 0.3 μM) is listed as −0.85.
Take `COc1nc(-c2cccc3nc(N)nn23)ccc1NC(=O)c1c(-c2ccccc2)noc1C` [Example 50, N-[6-(2-Amino-[1,2,4]triazolo[1,5-a]pyridin-5-yl)-2-methoxy-3-pyridyl]-5-methyl-3-phenyl-isoxazole-4-carboxamide]: in experiment [1], the Ki was 9.6 nM. Also, in experiment [2] (Conc 1 μM), the “α5-GABAAR Relative Efficacy” value is on record as −0.74.
As for `COc1nc(-c2ccc(CO)nc2)ccc1NC(=O)c1c(C)nnn1-c1ccccc1` [Example 160, N-(6′-(Hydroxymethyl)-6-methoxy-[2,3′-bipyridin]-5-yl)-4-methyl-1-phenyl-1H-1,2,3-triazole-5-carboxamide], the Ki in experiment [1] amounted to 28 nM. Also, the “α5-GABAAR Relative Efficacy” value in experiment [2] (Conc 3 μM) is recorded as −0.77.
Consider `COc1nc(-c2cnc(C(=O)O)nc2)ccc1NC(=O)c1c(-c2ccccc2)noc1C` [Example 60, 5-[6-Methoxy-5-[(5-methyl-3-phenyl-isoxazole-4-carbonyl)amino]-2-pyridyl]pyrimidine-2-carboxylic acid], for which the inhibition constant Ki in experiment [1] is 1.3 nM. The “α5-GABAAR Relative Efficacy” value in experiment [2] (Conc 0.3 μM) is reported as −0.92.
For the compound `COc1nc(-c2ccc3nncn3c2)ccc1NC(=O)c1c(-c2ccccc2)noc1C` [Example 96, N-(6-([1,2,4] Triazolo[4,3-a]pyridin-6-yl)-2-methoxypyridin-3-yl)-5-methyl-3-phenylisoxazole-4-carboxamide], the Ki in experiment [1] turned out to be 1.9 nM. In experiment [2] (Conc 0.3 μM), the “α5-GABAAR Relative Efficacy” value is listed as −0.52.
The matching figures for `COc1cc(-c2cn[nH]c2)cnc1NC(=O)c1c(-c2ccccc2)noc1C` [Example 18, N-[3-Methoxy-5-(1H-pyrazol-4-yl)-2-pyridyl]-5-methyl-3-phenyl-isoxazole-4-carboxamide]: 2.8 nM and −0.61.
As for `COc1nc(-c2ncn3c2CNCC3)ccc1NC(=O)c1c(-c2ccccc2)noc1C` [Example 187, N-(2-Methoxy-6-(5,6,7,8-tetrahydroimidazo[1,5-a]pyrazin-1-yl)pyridin-3-yl)-5-methyl-3-phenylisoxazole-4-carboxamide dihydrochloride], the Ki in experiment [1] amounted to 23.5 nM. The “α5-GABAAR Relative Efficacy” value in experiment [2] (Conc 3 μM) was −0.46.
`COc1nc(-c2ccc(NC(C)=O)nc2)ccc1NC(=O)c1c(-c2ccccc2)noc1C` [Example 108, N-(6′-Acetamido-6-methoxy-[2,3′-bipyridin]-5-yl)-5-methyl-3-phenylisoxazole-4-carboxamide]: the inhibition constant Ki in experiment [1] turned out to be 3.1 nM. The “α5-GABAAR Relative Efficacy” value in experiment [2] (Conc 1 μM) was −0.81.
The matching figures for `COc1nc(-c2cccc3nccn23)ccc1NC(=O)c1c(-c2ccccc2)noc1C` [Example 30, N-(6-Imidazo[1,2-a]pyridin-5-yl-2-methoxy-3-pyridyl)-5-methyl-3-phenyl-isoxazole-4-carboxamide]: 5.1 nM and −0.42.
For `COc1nc(-n2cnc3c2CCNC3)ccc1NC(=O)c1c(-c2ccccc2)noc1C.Cl` [Example 178, N-[2-methoxy-6-(4,5,6,7-tetrahydroimidazo[4,5-c]pyridin-1-yl)-3-pyridyl]-5-methyl-3-phenyl-isoxazole-4-carboxamide hydrochloride], the Ki in experiment [1] came to 2 nM. Moreover, the “α5-GABAAR Relative Efficacy” value in experiment [2] (Conc 0.3 μM) is reported as −0.62.
As to `COc1nc(-c2cnc(OCCN(C)C)nc2)ccc1NC(=O)c1c(-c2ccccc2)noc1C` [Example 163, N-[6-[2-[2-(Dimethylamino)ethoxy]pyrimidin-5-yl]-2-methoxy-3-pyridyl]-5-methyl-3-phenyl-isoxazole-4-carboxamide], the Ki in experiment [1] amounted to 4.1 nM. Also, the “α5-GABAAR Relative Efficacy” value in experiment [2] (Conc 1 μM) was −1.11.
Take `COc1nc(-c2c(C)nn(C)c2C)ccc1NC(=O)c1c(-c2ccccc2)noc1C` [Example 22, N-[2-Methoxy-6-(1,3,5-trimethylpyrazol-4-yl)-3-pyridyl]-5-methyl-3-phenyl-isoxazole-4-carboxamide]: in experiment [1], the Ki is 15.8 nM. Besides, in experiment [2] (Conc 3 μM), the “α5-GABAAR Relative Efficacy” value turned out to be 0.15.
On to `COc1nc(-c2ccnn2C)ccc1NC(=O)c1c(-c2ccccc2)noc1C` [Example 23, N-[2-Methoxy-6-(2-methylpyrazol-3-yl)-3-pyridyl]-5-methyl-3-phenyl-isoxazole-4-carboxamide], for which the Ki in experiment [1] was determined as 2.4 nM. Further, the “α5-GABAAR Relative Efficacy” value in experiment [2] (Conc 0.3 μM) was −0.46.
For `COc1nc(-n2ccnc2)ncc1NC(=O)c1c(-c2ccccc2)noc1C` [Example 3, N-(2-Imidazol-1-yl-4-methoxy-pyrimidin-5-yl)-5-methyl-3-phenyl-isoxazole-4-carboxamide], in experiment [1], the inhibition constant Ki was 32.8 nM. Moreover, the “α5-GABAAR Relative Efficacy” value in experiment [2] (Conc 1 μM) is on record as −0.69.
On to `COc1nc(-c2ncco2)ccc1NC(=O)c1c(-c2ccccc2)noc1C` [Example 123, N-(2-Methoxy-6-oxazol-2-yl-3-pyridyl)-5-methyl-3-phenyl-isoxazole-4-carboxamide], for which, in experiment [1], the Ki stood at 11.8 nM. The “α5-GABAAR Relative Efficacy” value in experiment [2] (Conc 3 μM) is −0.48.
As to `COc1nc(-n2cnc(C#N)c2)ccc1NC(=O)c1c(-c2ccccc2)noc1C` [Example 139, N-[6-(4-Cyanoimidazol-1-yl)-2-methoxy-3-pyridyl]-5-methyl-3-phenyl-isoxazole-4-carboxamide], the inhibitory constant (Ki) in experiment [1] turned out to be 1.9 nM. Further, the “α5-GABAAR Relative Efficacy” value in experiment [2] (Conc 0.3 μM) is given as −0.90.
For `CNc1ncc(-c2ccc(NC(=O)c3c(C)nnn3-c3ccccc3)c(OC)n2)cn1` [Example 166, N-(2-Methoxy-6-(2-(methylamino)pyrimidin-5-yl)pyridin-3-yl)-4-methyl-1-phenyl-1H-1,2,3-triazole-5-carboxamide], the Ki in experiment [1] was determined as 31 nM. Further, the “α5-GABAAR Relative Efficacy” value in experiment [2] (Conc 3 μM) was −0.98.
As to `CCOc1ncc(-c2ccc(NC(=O)c3c(C)nnn3-c3ccccc3)c(OC)n2)cn1` [Example 162, N-(6-(2-Ethoxypyrimidin-5-yl)-2-methoxypyridin-3-yl)-4-methyl-1-phenyl-1H-1,2,3-triazole-5-carboxamide], in experiment [1], the Ki was 33.6 nM. Besides, the “α5-GABAAR Relative Efficacy” value in experiment [2] (Conc 3 μM) is listed as −0.90.
On to `COc1nc(-c2ncn3c2CN(C)CC3)ccc1NC(=O)c1c(-c2ccccc2)noc1C` [Example 186, N-(2-Methoxy-6-(7-methyl-5,6,7,8-tetrahydroimidazol[1,5-a]pyrazin-1-yl)pyridin-3-yl)-5-methyl-3-phenylisoxazole-4-carboxamide], for which the Ki in experiment [1] was 17.5 nM. In experiment [2] (Conc 3 μM), the “α5-GABAAR Relative Efficacy” value is reported as −0.69.
`COc1nc(-c2ccn3nc(N(C)C)nc3c2)ccc1NC(=O)c1c(-c2ccccc2)noc1C.Cl` [Example 131, N-[6-[2-(Dimethylamino)-[1,2,4]triazolo[1,5-a]pyridin-7-yl]-2-methoxy-3-pyridyl]-5-methyl-3-phenyl-isoxazole-4-carboxamide hydrochloride]: the Ki in experiment [1] stood at 9.8 nM. The “α5-GABAAR Relative Efficacy” value in experiment [2] (Conc 1 μM) is −0.67.
For `CNc1ncc(-c2cnc(NC(=O)c3c(-c4ccccc4)noc3C)c(OC)n2)cn1` [Example 145, N-[3-Methoxy-5-[2-(methylamino)pyrimidin-5-yl]pyrazin-2-yl]-5-methyl-3-phenyl-isoxazole-4-carboxamide], the Ki in experiment [1] was determined as 0.3 nM. The “α5-GABAAR Relative Efficacy” value in experiment [2] (Conc 0.1 μM) was −1.12.
Consider `COc1nc(-c2cnnn2C)ccc1NC(=O)c1c(-c2ccccc2)noc1C` [Example 102, N-(2-Methoxy-6-(1-methyl-1H-1,2,3-triazol-5-yl)pyridin-3-yl)-5-methyl-3-phenyl-isoxazole-4-carboxamide], for which, in experiment [1], the Ki was determined as 1.5 nM. Also, in experiment [2] (Conc 0.3 μM), the “α5-GABAAR Relative Efficacy” value is on record as −0.79.
